Values joined by “and” are separate entries in the source; they are usually repeats but may differ in a detail not shown here. Identical values can stand only once.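 Interpolation was linear, between the two tested concentrations surrounding the appropriate level; five concentrations were tested over 48 hours in 96-well plates. Abbreviation: GI50, concentration required for 50% inhibition of growth. The concentration for full growth arrest is given as TGI.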
Assays:
Assay in all cases: NCI anticancer screen, dose series, 48 h
[1] = system: DLD-1 colon
[2] = system: RPMI-8226 leukemia
[3] = system: DMS 273 small cell lung
[4] = system: HOP-62 NSCLC
[5] = system: COLO 205 colon
[6] = system: HCT-116 colon
[7] = system: A498 renal
[8] = system: MDA-MB-231 breast
[9] = system: PC-3 prostate
[10] = system: HS 578T breast

Compound | TGI [1] | TGI [2] | TGI [3] | TGI [4] | TGI [5] | TGI [6] | TGI [7] | GI50 [1] | GI50 [4] | GI50 [6] | GI50 [7] | GI50 [5] | GI50 [2] | GI50 [8] | TGI [8] | GI50 [9] | TGI [9] | GI50 [10] | TGI [10]
CC(C)(C)C(C#N)(C#N)c1ccc(C(C#N)(C#N)C(C)(C)C)nn1 | > 100 µM | > 100 µM | > 100 µM | > 100 µM | > 100 µM | – | – | – | – | – | – | – | – | – | – | – | – | – | –
Brc1ccc2ns[s+]c2c1 | – | > 100 µM | > 100 µM | > 31.6 µM | > 41.9 µM | > 100 µM | > 100 µM | – | – | – | – | – | – | – | – | – | – | – | –
CC(=O)NNc1nc(C)c(C(=O)NNC(=O)C(=O)Nc2ccc(Cl)cc2Cl)s1 | > 100 µM | > 100 µM | – | > 100 µM | > 100 µM | > 100 µM | – | – | – | – | – | – | – | – | – | – | – | – | –
O=P(O)(O)C1(P(=O)(O)O)CC1 | – | > 100 µM | > 100 µM | > 100 µM | > 100 µM | > 100 µM | > 100 µM | – | – | – | – | – | – | – | – | – | – | – | –
CCOC(=O)C1(C)CCCCC(=O)N1 (stereo unspecified) | > 100 µM | – | > 100 µM | > 100 µM | > 100 µM | – | – | – | – | – | – | – | – | – | – | – | – | – | –
CC(=O)NC(CC(C)C)C(=O)NC(Cc1ccccc1)C(=S)N1CCCC1 (stereo unspecified) | – | > 100 µM | > 100 µM | > 100 µM | > 100 µM | – | > 100 µM | – | – | – | – | – | – | – | – | – | – | – | –
CC1=C(C(=O)Nc2cc(F)c(F)cc2F)C(c2ccc([N+](=O)[O-])cc2)C(C(=O)Nc2cc(F)c(F)cc2F)=C(C)N1 | > 100 µM | 45.1 µM | – | > 100 µM | > 100 µM | > 100 µM | 87.1 µM | – | – | – | – | – | – | – | – | – | – | – | –
COc1ccc(/C=C/C(=O)c2sc(-n3nc(-c4ccccc4)cc3-c3ccccc3)nc2C)cc1 | > 100 µM | > 100 µM | – | > 100 µM | > 100 µM | > 100 µM | > 100 µM | > 100 µM | > 100 µM | > 100 µM | > 100 µM | > 100 µM | – | – | – | – | – | – | –
CN1c2ccccc2N(C(=O)c2ccccc2)C(CC(=O)O)c2cccn21 (stereo unspecified) | – | > 100 µM | > 100 µM | > 100 µM | > 100 µM | – | > 100 µM | – | – | – | – | – | – | – | – | – | – | – | –
COc1ccc(N=N/C(C(=O)C(F)(F)F)=C(\O)c2ccc(Cl)cc2)cc1 | – | 47.3 µM | – | 63.4 µM | 25.1 µM | 26.2 µM | 23.8 µM | – | 15.5 µM | 6.64 µM | 10.9 µM | 11.3 µM | 5.96 µM | 9.11 µM | 66.9 µM | 10.4 µM | > 100 µM | 11.2 µM | 76.2 µM
Cc1cc(N2CCN(C)CC2)n2nc(-c3ccc(Cl)cc3)nc2n1 | – | > 100 µM | – | > 100 µM | > 100 µM | > 100 µM | > 100 µM | – | – | – | – | – | – | – | > 100 µM | – | > 100 µM | – | > 100 µM
CSC(=Nc1ccccc1)/N=C(\SCc1ccccc1)N(C)C | – | 3.57 µM | 2.57 µM | 3.31 µM | 1.58 µM | 1.38 µM | 5.27 µM | – | – | – | – | – | – | – | 2.39 µM | – | 2.55 µM | – | 4.17 µM
CC(SC(=O)Nc1ccc(N=Nc2ccccc2)cc1)C(=O)O (stereo unspecified) | – | > 100 µM | > 100 µM | > 100 µM | > 100 µM | > 100 µM | > 100 µM | – | – | – | – | – | – | – | – | – | – | – | –
O=C1Cc2cc(C(=O)NC3C[C@H]4CC[C@@H](C3)N4S(=O)(=O)CC3CCN(CCCC(F)(F)F)CC3)c(Cl)cc2N1 (stereo partly specified) | – | > 100 µM | – | > 100 µM | > 100 µM | > 100 µM | > 100 µM | – | > 100 µM | > 100 µM | > 100 µM | 31.2 µM | > 100 µM | > 100 µM | > 100 µM | > 100 µM | > 100 µM | > 100 µM | > 100 µM
COc1cc2cc(Oc3ccc(NC(=O)Nc4ccc(Cl)c(Cl)c4)cc3)c(C)nc2cc1OC | – | 5.73 µM | – | 11.9 µM | 6.5 µM | 10.5 µM | 7.93 µM | – | 3.55 µM | 2.26 µM | 1.95 µM | 2.75 µM | 1.62 µM | 2.46 µM | 12 µM | 1.53 µM | 5.13 µM | 3.54 µM | 9.68 µM
CCN(CC)Cc1cc2[nH]c3c4ccc(Cl)cc4ncc3c2cc1OC | – | 5.09 µM and 4.56 µM | – | 11.7 µM and 9.34 µM | 8.54 µM and 3.26 µM | 5.92 µM and 3.15 µM | 29.4 µM and 21.7 µM | – | 5.41 µM and 2.01 µM | 1.85 µM and 1.65 µM | 15.9 µM and 10 µM | 3.69 µM and 1.79 µM | 1.26 µM and 1.87 µM | 1.83 µM and 1.8 µM | 7.16 µM and 4.51 µM | 3.18 µM and 1.99 µM | 16 µM and 6.8 µM | 2.29 µM and 2.54 µM | 7.09 µM and 8.34 µM
COc1ccc(/C(C#N)=C2C=C/C(=N/O)c3ccccc3\2)cc1 | – | 9.76 µM | – | 16 µM | 3.52 µM | 11 µM | 6.75 µM | – | 0.376 µM | 0.328 µM | 2.21 µM | 1.34 µM | 0.371 µM | 0.27 µM | 0.796 µM | 0.322 µM | 15.7 µM | 0.258 µM | 6.33 µM

Reference: PubChem BioAssay (NCI)
